Experimental findings from publication PMC5853558, “De novo identification of lipid II binding lipopeptides with antibacterial activity against vancomycin-resistant bacteria” (Chemical Science, 2017) are described below.

Series [1] has as its system C15-P (farnesyl-phosphate). Kind of series: Antagonization assay with C15-P (negative control). The series is classed as cell-based. The arrangement: key: +: antagonization of antibiotic activity; -: no antagonization of antibiotic activity. Conditions: Supplemental table S10, peptide at 4x MIC, 4 molar equivalents, M. luteus, 16 h at 30°C, growth observed visually. As for the experimental part:
(§1) Section 4 Biological and biochemical experiments
(§2) 4.1 Minimum inhibitory concentration assay
(§3) MIC values were determined by using the broth microdilution method. Peptides were dissolved first in DMSO and diluted with broth so that the final peptide concentration was 1024 µg/ml and the DMSO concentration was 4%. Peptide serial dilutions were made in TSB in a polypropylene 96-wells plate using 50 µl volumes. An overnight culture of the organism of interest was diluted to and OD600 of 0.01 and grown until they reach 0.5. The culture was then diluted to 1 x 10^6 CFU/ml and 50 µl of this suspension was added to each well. The highest concentrations were then 512 µg/ml peptide and 2% DMSO. The plates were incubated at the preferred growth temperature of the organism that was used and 250 rpm. […] When […]
(§4) determining the MICs of the lipidated peptides, the lipopeptides were first dissolved in DMSO and diluted with TSB so that the peptide concentration was 128 µg/ml and the DMSO concentration was 4%. After inoculation the highest peptide concentration evaluated was 64 µg/ml and the DMSO concentration was 2%. A DMSO control was tested for each strain to ensure the DMSO did not affect the growth of the particular strain. […]
(§5) 4.4 Antagonization assays
(§6) Stock solutions of each peptide antibiotic were prepared so that their final concentration in the assay would be 4x MIC. Peptides were transferred to a 96 wells plate and lipid II or C15-P (farnesyl-phosphate) was added at 4 molar equivalents in a final volume of 50 µl. Each well received 50 µl of bacterial suspension (M. luteus) at 1 x 10^6 CFU/ml and the plates were incubated for 16 h at 250 rpm and 30°C. Growth was observed visually (see supplemental table S10 for results).
Supplemental table S10. Lipid II antagonization assay results
Result with indicated antagonista
Antibiotic compound Lipid II C55-PP C15-Pb […]
a + = antagonization of antibiotic activity; - = no antagonization of antibiotic activity; b C -P was used as a negative […]
control (C15-P is a watersoluble analogue of the lipid II precursor undecaprenol phosphate).
4.6 Scanning Electron Microscopy
E. faecium E155 was inoculated at an OD600nm of 0.05 into 300 µL of cation adjusted TSB containing P8-D-(S6R, R15A)-C10 or nisin at (both a 2x MIC) along with 1% glucose and 1%
DMSO. An untreated culture was used as control. Following overnight incubation (ca. 16 hr) bacterial cells were fixed for 15 minutes with 1% (v/v) glutaraldehyde in phosphate buffered saline (PBS) at room temperature on poly-L-lysine covered glass slides (12 mm diameter). […]

In series [2] the test system is lipid II. Kind of series: Lipid II antagonization assay. The series is classed as cell-based, M. luteus. The arrangement: key to Result with antagonist Lipid II: +: antagonization of antibiotic activity; -: no antagonization of antibiotic activity. As for the experimental part: (§7) To assess the role of lipid II in the mode of action of the lipopeptides a lipid II antagonization assay was employed.[18],[33] This assay was performed by premixing P8-D-C10 or the optimized P8-D-(S6R, R15A)-C10 with an excess of lipid II prior to addition of a live culture of M. luteus. […] To probe the stereochemical aspects of lipid II recognition by the optimized P8-D-(S6R, R15A)-C10 lipopeptide we also prepared and tested the corresponding enantiomeric L-peptide species P8-L-(S6R, R15A)-C10. […] Given that lipid II is a chiral biomolecule we had expected the enantiomeric lipopeptides to have different activities based on the assumption that they would interact differently with lipid II. To further investigate this phenomenon we employed the same lipid II antagonization assay described above. […] To explain this observation we hypothesize that the two enantiomeric peptides interact primarily with the pyrophosphate moiety of lipid II and are therefore less influenced by the chiral elements present elsewhere in the lipid II molecule. The pyrophosphate group is known to be a binding site for many natural occurring lipid II binding peptides.[15],[16] […] To test the hypothesis that both the P8-D-(S6R, R15A)-C10 and P8-L-(S6R, R15A)-C10 lipopeptides interact with the pyrophosphate moiety we performed an additional antagonizaiton experiment using C55-PP.
as §1, §2, §3, §4, §5, §6

Series [3] has as its system M. luteus (NCTC2665). Kind of series: microbe, parasite or virus in culture. The series is classed as cell-based, Micrococcus luteus. The conditions noted are these: for MIC M. luteus: Supplemental table S7, P8 with varying lipids, broth microdilution. The method in brief:
(§8)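 Dilution series of peptide in TSB, up to 512 µg/ml final (lipopeptides up to 64 µg/ml), DMSO 2% final. Mid-log inoculum suspension at 1 x 10^6 CFU/ml, equal volume per well. Incubation at the strain's growth temperature with shaking.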
A general note: Broth dilution looks for growth in wells or tubes with falling amounts of substance.

Series [4] relates to C55-PP. In words: Antagonization assay with C55-PP. The series is classed as cell-based, M. luteus. The arrangement: key to Result with antagonist C55-PP: +: antagonization of antibiotic activity; -: no antagonization of antibiotic activity. The conditions noted are these: Supplemental table S10; peptide at 4x MIC, M. luteus, 16 h at 30°C, growth observed visually. As for the experimental part:
as §7, §1, §2, §3, §4, §5, §6

Series [5] has as its system Sheep blood. Kind of series: Hemolysis assay. Conditions: for Hemolysis 32 µg/ml (after 1 h): Supplemental table S7, sheep blood cells in PBS, 1 h at 37°C, absorption at 414 nm. The series is classed as cell-based. Here is the method: Sheep blood in Alsever’s solution (2 mL) was diluted with PBS (13 mL) and centrifuged (2,000 RPM, 5 min). The supernatant was discarded and the cells were washed with another 13 mL of PBS and centrifuged. Washing was continued until the supernatant was clear. After the final wash the supernatant was discarded and the packed cells were kept on ice. Serial dilutions of each peptide were made in 50 µl PBS with the highest tested concentration 64 µg/mL in PBS, 2%
DMSO. The packed cells (150 µL) were suspended in PBS (10 mL) and 50 µL of this suspension was added to each well. A well plate column containing 0.1% triton x-100 in DI water was used as the 100% lysis control and a second column with PBS (with 2% DMSO) served as the 0% lysis control. After incubation at 37°C for 1h the plates were centrifuged (2,000 RPM, 5 min) and 25 µL of the supernatant was added to 100 µL DI water in a flat-bottom 96-wells plate (polystyrene). […]

In series [6] the test system is S. epidermidis (1587). In words: microbe, parasite or virus in culture. The series is classed as cell-based. Conditions: Table 2; broth microdilution in TSB, 16 h, read visually; highest tested 64 µg/ml. As for the experimental part:
as §1, §2, §3, §4

Series [7] relates to B. subtilis (168). In words: microbe, parasite or virus in culture. The series is classed as cell-based. Here is the method: as §1, §2, §3, §4
Series [8] has as its system S. pyogenes (5448). Kind of series: microbe, parasite or virus in culture. The series is classed as cell-based. Here is the method: as §1, §2, §3, §4
Series [9] concerns E. faecium (VRE2297). In words: microbe, parasite or virus in culture. The series is classed as cell-based, Enterococcus faecium. Conditions: Table 2; vancomycin-resistant isolate from hospitalized patients; broth microdilution in TSB, 16 h; highest tested 64 µg/ml. The method in brief:
as §8

Series [10] has as its system E. faecium (VRE155). Kind of series: microbe, parasite or virus in culture. The series is classed as cell-based, Enterococcus faecium. The conditions noted are these: for MIC VRE E155: Supplemental table S7, P8 with varying lipids, broth microdilution. A digest of the protocol: as §8
The subject of series [11] is E. faecium (VRE0321). Kind of series: microbe, parasite or virus in culture. The series is classed as cell-based, Enterococcus faecium. A digest of the protocol: as §8
In series [12] the test system is E. faecium (VRE7391). In words: microbe, parasite or virus in culture. The series is classed as cell-based, Enterococcus faecium. The method in brief:
as §8

Series [13] concerns E. faecium (E980). Kind of series: microbe, parasite or virus in culture. The series is classed as cell-based, Enterococcus faecium. A digest of the protocol:
as §8

For series [14] the following is noted: footnote to Supplemental table S7; observation in words during MIC experiments.
Setting [15] is: Supplemental table S9, MIC values of Table 2 expressed in µM.
Setting [16] is: Table 2, broth microdilution in TSB, 16 h, read visually, highest tested 64 µg/ml.
Where [17] appears, read: Supplemental table S9, vancomycin-resistant isolate, MIC values of Table 2 expressed in µM.
Setting [18] is: Table 2, vancomycin-resistant isolate from hospitalized patients, broth microdilution in TSB, 16 h, highest tested 64 µg/ml.

In brackets after ≈: the same amount, converted by molar mass. *1 amine or outer side, *2 acyl side, *3 side chain or, on linkers, in order; H or OH if unused. Where a SMILES comes first, the peptide text is derived from it. Bridges are numbered along the chain shown (N, C = ends). [ ]: non-standard residue; d: D form. The star is where a group is joined. TBMB = c1c(C[*:1])cc(C[*:3])cc1C[*:2]; NHtetradecyl = CCCCCCCCCCCCCCN*; NHDecyl = CCCCCCCCCCN*

As to `CCCCCCCCCCNC(=O)CNC(=O)[C@H]1CSCc2cc3cc(c2)CSC[C@@H](NC(=O)[C@@H](CC(C)C)NC(=O)[C@@H](CC(C)C)NC(=O)[C@@H](CO)NC(=O)[C@@H](CCC(N)=O)NC(=O)[C@@H](CC(C)C)NC(=O)[C@@H](CC(C)C)NC(=O)[C@H](NC(=O)[C@@H](C)N)CSC3)C(=O)N2CCC[C@@H]2C(=O)N[C@H](Cc2ccc(O)cc2)C(=O)N[C@H](CO)C(=O)N[C@H]([C@H](C)O)C(=O)N[C@H](Cc2c[nH]cn2)C(=O)N[C@H](CCCNC(=N)N)C(=O)N1` [Peptide P8-D-C10] (H-[dA][dC][dL][dL][dQ][dS][dL][dL][dC][dP][dY][dS][dT][dH][dR][dC]G-NHDecyl; linker 2-9-16 via TBMB), in series [1], the “Result with antagonist C15-P” value is “-”. Further, the “Result with antagonist Lipid II” value in series [2] (Supplemental table S10, peptide at 4x MIC, antagonist at 4 molar equivalents, M. luteus 1 x 10^6 CFU/ml, 16 h at 30°C, growth observed visually) was “+”. In addition, the “Effect of pre-incubation with lipid II on antibacterial activity” value in series [2] (premixed with an excess of lipid II before addition of a live culture of M. luteus) is on record as “antagonization of antibacterial activity”. The “MIC M. luteus” value in [3] turned out to be 4 µg/mL (≈ 1.89 µM). Also, the “MIC M. luteus (NCTC2665)” value in series [3] (setting [15]) is reported as 3.8 µM (≈ 8.05 µg/mL). Besides, in series [4], the “Result with antagonist C55-PP” value is on record as “+”. For the same compound, in series [5], the “Hemolysis 32 µg/ml (after 1 h)” value was 6%. Moreover, the Hemolysis in series [5] (Supplemental table S9, 1 hour incubation at 37 °C, lipopeptides at 32 µg/mL) was 6%. Moreover, in [6], the “MIC S. epidermidis (1587)” value came out at 64 μg mL^–1. Moreover, the “MIC B. subtilis” value in series [7] (Supplemental table S6, lipidated phage display hits, n.a. = not active, highest tested conc 64 µg/ml) is 8 to 16 µg/mL. In addition, the “MIC B. subtilis (168)” value in [7] (setting [16]) is 8–16 μg mL^–1. The “MIC S. pyogenes (5448)” value is recorded as 7.6 µM (≈ 16.1 µg/mL) in series [8] (setting [15]) and 8 μg mL^–1 in series [8] (setting [16]). Besides, in [9], the “MIC E. faecium (VRE2297)” value is recorded as 8–16 μg mL^–1. Also, the “MIC VRE E155” value in [10] turned out to be 4 µg/mL (≈ 1.89 µM). Further, the “MIC E. faecium (VRE155)” value in series [10] (setting [17]) came out at 3.8 µM (≈ 8.05 µg/mL). Moreover, the “MIC E. faecium (VRE0321)” value turned out to be 3.8 µM (≈ 8.05 µg/mL) in [11] (setting [17]) and 4 μg mL^–1 in series [11] (setting [18]). Further, the “MIC E. faecium (VRE7391)” value in series [12] (setting [17]) is 7.6 µM (≈ 16.1 µg/mL); in [12] (setting [18]), 8 μg mL^–1. The “MIC E. faecium (E980)” value in series [13] (setting [15]) was 30.3 µM (≈ 64.2 µg/mL); in series [13] (setting [16]), 32 μg mL^–1.
With `CCCCCCCCCCCCCCNC(=O)CNC(=O)[C@H]1CSCc2cc3cc(c2)CSC[C@@H](NC(=O)[C@@H](CC(C)C)NC(=O)[C@@H](CC(C)C)NC(=O)[C@@H](CO)NC(=O)[C@@H](CCC(N)=O)NC(=O)[C@@H](CC(C)C)NC(=O)[C@@H](CC(C)C)NC(=O)[C@H](NC(=O)[C@@H](C)N)CSC3)C(=O)N2CCC[C@@H]2C(=O)N[C@H](Cc2ccc(O)cc2)C(=O)N[C@H](CO)C(=O)N[C@H]([C@H](C)O)C(=O)N[C@H](Cc2c[nH]cn2)C(=O)N[C@H](CCCNC(=N)N)C(=O)N1` [Peptide P8-D-C14] (H-[dA][dC][dL][dL][dQ][dS][dL][dL][dC][dP][dY][dS][dT][dH][dR][dC]G-NHtetradecyl; linker 2-9-16 via TBMB; N-terminus assumed), the “MIC M. luteus” value in [3] was 4 to 64 µg/mL. Moreover, the “solubility of the peptide” value in series [14] was “poor”. Besides, the “Hemolysis 32 µg/ml (after 1 h)” value in series [5] is 12%. Moreover, the “MIC VRE E155” value in series [10] was in the range of 4 to 64 µg/mL.
